Reference: patent US12077503B2, “Substituted cyclic amides and their use as herbicides” (FMC CORPORATION, priority 2015, dated 2024)

How the values were obtained:
Format in all cases: in vivo
[1] = system: ducksalad (Heteranthera limosa); assay: Test C flooded paddy test; details: Flood, 0 is no effect, 100 is complete control
In short: (§1)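 Plants grown to the 2-leaf stage in pots flooded to 3 cm above soil; compounds applied directly into the paddy water, depth held throughout. After 13 to 15 d in greenhouse, injury visually rated against untreated controls on a 0–100 scale (0 no effect, 100 complete control).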

[2] = system: barnyardgrass (Echinochloa crus-galli); assay: Test C flooded paddy test; details: Flood, 0 is no effect, 100 is complete control
In short: as §1

[3] = system: rice (Oryza sativa); assay: Test C flooded paddy test; details: Flood, 0 is no effect, 100 is complete control
In short: as §1

[4] = system: sedge, umbrella (small-flower umbrella sedge, Cyperus difformis); assay: Test C flooded paddy test; details: Flood, 0 is no effect, 100 is complete control
In short: as §1

[5] = system: pigweed (Amaranthus retroflexus); assay: Test A preemergence; details: for Plant response rating, Pigweed: 125 g ai/ha, preemergence, 0 to 100 scale (0 no effect, 100 complete control); for Pigweed plant response rating (0 to 100 scale): Preemergence, 500 g ai/ha, 0 is no effect, 100 is complete control
[6] = system: barnyardgrass (Echinochloa crus-galli); assay: Test A preemergence; details: for Plant response rating, Barnyardgrass: 125 g ai/ha, preemergence, 0 to 100 scale (0 no effect, 100 complete control); for Barnyardgrass plant response rating (0 to 100 scale): Preemergence, 500 g ai/ha, 0 is no effect, 100 is complete control
In short: (§2)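 Greenhouse, ~10 d after spray; visual injury vs untreated controls, 0 = no effect, 100 = complete control. Preemergence: directed soil spray over planted seeds. Postemergence: plants 2–10 cm, 1–2 leaf stage. Loam/sand blend. Compound in non-phytotoxic solvent with surfactant.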

[7] = system: crabgrass, large (Digitaria sanguinalis); assay: Test A preemergence; details: for Plant response rating, Crabgrass, Large: 125 g ai/ha, preemergence, 0 to 100 scale (0 no effect, 100 complete control); for Crabgrass, Large plant response rating (0 to 100 scale): Preemergence, 500 g ai/ha, 0 is no effect, 100 is complete control
In short: as §2

[8] = system: corn (Zea mays); assay: Test A preemergence; details: for Plant response rating, Corn: 125 g ai/ha, preemergence, 0 to 100 scale (0 no effect, 100 complete control); for Corn plant response rating (0 to 100 scale): Preemergence, 500 g ai/ha, 0 is no effect, 100 is complete control
In short: as §2

[9] = system: velvetleaf (Abutilon theophrasti); assay: Test A preemergence; details: for Plant response rating, Velvetleaf: 125 g ai/ha, preemergence, 0 to 100 scale (0 no effect, 100 complete control); for Velvetleaf plant response rating (0 to 100 scale): Preemergence, 500 g ai/ha, 0 is no effect, 100 is complete control
In short: as §2

[10] = system: giant foxtail (Setaria faberii); assay: Test A preemergence; details: for Plant response rating, Foxtail, Giant: 125 g ai/ha, preemergence, 0 to 100 scale (0 no effect, 100 complete control); for Foxtail, Giant plant response rating (0 to 100 scale): Preemergence, 500 g ai/ha, 0 is no effect, 100 is complete control
In short: as §2

[11] = system: morningglory (Ipomoea spp.); assay: Test A preemergence; details: for Plant response rating, Morningglory: 125 g ai/ha, preemergence, 0 to 100 scale (0 no effect, 100 complete control); for Morningglory plant response rating (0 to 100 scale): Preemergence, 500 g ai/ha, 0 is no effect, 100 is complete control
In short: as §2

[12] = system: wheat (Triticum aestivum); assay: Test A preemergence; details: for Plant response rating, Wheat: 125 g ai/ha, preemergence, 0 to 100 scale (0 no effect, 100 complete control); for Wheat plant response rating (0 to 100 scale): Preemergence, 500 g ai/ha, 0 is no effect, 100 is complete control
In short: as §2

[13] = system: pigweed (Amaranthus retroflexus); assay: Test A postemergence
In short: as §2

[14] = system: barnyardgrass (Echinochloa crus-galli); assay: Test A postemergence
In short: as §2

[15] = system: crabgrass, large (Digitaria sanguinalis); assay: Test A postemergence
In short: as §2

[16] = system: corn (Zea mays); assay: Test A postemergence
In short: as §2

[17] = system: velvetleaf (Abutilon theophrasti); assay: Test A postemergence
In short: as §2

[18] = system: giant foxtail (Setaria faberii); assay: Test A postemergence
In short: as §2

[19] = system: morningglory (Ipomoea spp.); assay: Test A postemergence
In short: as §2

[20] = system: wheat (Triticum aestivum); assay: Test A postemergence
In short: as §2

[21] = 500 g ai/ha, postemergence, 0 to 100 scale, 0 no effect, 100 complete control
[22] = Postemergence, 125 g ai/ha, visual injury, 0 to 100 scale (0 no effect, 100 complete control), approx. 10 d

O=C1NCC(c2ccoc2)C1C(=O)Nc1ccccc1F (racemic) [Compound 356]
0: Plant response rating (scale of 0 to 100), Ducksalad ([1]; 62 g ai/ha) | Plant response rating (scale of 0 to 100), Ducksalad ([1]; 250 g ai/ha) | Plant response rating (scale of 0 to 100), Barnyardgrass ([2]; 62 g ai/ha) | Plant response rating (scale of 0 to 100), Barnyardgrass ([2]; 250 g ai/ha) | Plant response rating (scale of 0 to 100), Rice ([3]; 62 g ai/ha) | Plant response rating (scale of 0 to 100), Rice ([3]; 250 g ai/ha) | Plant response rating (scale of 0 to 100), Sedge, Umbrella ([4]; 62 g ai/ha) | Plant response rating (scale of 0 to 100), Sedge, Umbrella ([4]; 250 g ai/ha) | Plant response rating, Pigweed [5] | Pigweed plant response rating (0 to 100 scale) [5] | Plant response rating, Barnyardgrass [6] | Barnyardgrass plant response rating (0 to 100 scale) [6] | Plant response rating, Crabgrass, Large [7] | Crabgrass, Large plant response rating (0 to 100 scale) [7] | Plant response rating, Corn [8] | Corn plant response rating (0 to 100 scale) [8] | Plant response rating, Velvetleaf [9] | Velvetleaf plant response rating (0 to 100 scale) [9] | Plant response rating, Foxtail, Giant [10] | Foxtail, Giant plant response rating (0 to 100 scale) [10] | Plant response rating, Morningglory [11] | Morningglory plant response rating (0 to 100 scale) [11] | Plant response rating, Wheat [12] | Wheat plant response rating (0 to 100 scale) [12] | Plant response rating, Pigweed [13, 21] | Plant response rating, Pigweed [13, 22] | Plant response rating, Barnyardgrass [14, 21] | Plant response rating, Barnyardgrass [14, 22] | Plant response rating, Crabgrass, Large [15, 21] | Plant response rating, Crabgrass, Large [15, 22] | Plant response rating, Corn [16, 21] | Plant response rating, Corn [16, 22] | Plant response rating, Velvetleaf [17, 21] | Plant response rating, Velvetleaf [17, 22] | Plant response rating, Foxtail, Giant [18, 21] | Plant response rating, Foxtail, Giant [18, 22] | Plant response rating, Morningglory [19, 21] | Plant response rating, Morningglory [19, 22] | Plant response rating, Wheat [20, 21] | Plant response rating, Wheat [20, 22]

O=C1NCC(c2ccoc2)C1C(=O)Nc1ccccc1C(F)(F)F (racemic) [Compound 364]
0: Plant response rating (scale of 0 to 100), Ducksalad ([1]; 31 g ai/ha) | Plant response rating (scale of 0 to 100), Ducksalad ([1]; 62 g ai/ha) | Plant response rating (scale of 0 to 100), Ducksalad ([1]; 125 g ai/ha) | Plant response rating (scale of 0 to 100), Ducksalad ([1]; 250 g ai/ha) | Plant response rating (scale of 0 to 100), Barnyardgrass ([2]; 31 g ai/ha) | Plant response rating (scale of 0 to 100), Barnyardgrass ([2]; 62 g ai/ha) | Plant response rating (scale of 0 to 100), Barnyardgrass ([2]; 125 g ai/ha) | Plant response rating (scale of 0 to 100), Barnyardgrass ([2]; 250 g ai/ha) | Plant response rating (scale of 0 to 100), Rice ([3]; 31 g ai/ha) | Plant response rating (scale of 0 to 100), Rice ([3]; 62 g ai/ha) | Plant response rating (scale of 0 to 100), Rice ([3]; 125 g ai/ha) | Plant response rating (scale of 0 to 100), Rice ([3]; 250 g ai/ha) | Plant response rating (scale of 0 to 100), Sedge, Umbrella ([4]; 31 g ai/ha) | Plant response rating (scale of 0 to 100), Sedge, Umbrella ([4]; 62 g ai/ha) | Plant response rating (scale of 0 to 100), Sedge, Umbrella ([4]; 125 g ai/ha) | Plant response rating (scale of 0 to 100), Sedge, Umbrella ([4]; 250 g ai/ha) | Plant response rating, Pigweed [5] | Pigweed plant response rating (0 to 100 scale) [5] | Plant response rating, Barnyardgrass [6] | Barnyardgrass plant response rating (0 to 100 scale) [6] | Plant response rating, Crabgrass, Large [7] | Crabgrass, Large plant response rating (0 to 100 scale) [7] | Plant response rating, Corn [8] | Corn plant response rating (0 to 100 scale) [8] | Plant response rating, Velvetleaf [9] | Velvetleaf plant response rating (0 to 100 scale) [9] | Plant response rating, Foxtail, Giant [10] | Foxtail, Giant plant response rating (0 to 100 scale) [10] | Plant response rating, Morningglory [11] | Morningglory plant response rating (0 to 100 scale) [11] | Plant response rating, Wheat [12] | Wheat plant response rating (0 to 100 scale) [12] | Plant response rating, Pigweed [13, 21] | Plant response rating, Pigweed [13, 22] | Plant response rating, Barnyardgrass [14, 21] | Plant response rating, Barnyardgrass [14, 22] | Plant response rating, Crabgrass, Large [15, 21] | Plant response rating, Crabgrass, Large [15, 22] | Plant response rating, Corn [16, 21] | Plant response rating, Corn [16, 22] | Plant response rating, Velvetleaf [17, 21] | Plant response rating, Foxtail, Giant [18, 21] | Plant response rating, Foxtail, Giant [18, 22] | Plant response rating, Morningglory [19, 21] | Plant response rating, Morningglory [19, 22] | Plant response rating, Wheat [20, 21] | Plant response rating, Wheat [20, 22]
